# Measurements: PubChem BioAssay (NCI)
#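 Interpolation was linear, between the two tested concentrations surrounding the appropriate level; five concentrations were tested over 48 hours in 96-well plates. GI50: concentration for 50% inhibition of growth. At the TGI there is no net growth.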 Where a SMILES comes first, the peptide text is derived from it. Bridges are numbered along the chain shown (N, C = ends). Roman numbers before positions name the chains, in order. [ ]: non-standard residue; d: D form. The star is where a group is joined. Heptadecanoyl = CCCCCCCCCCCCCCCCC(=O)*; Phg = N[CH](C(=O)O)c1ccccc1
# How the values were obtained:
# Assay in all cases: inhibition of tumour cell growth, NCI panel, 48 h
# [1] = tested on: HCC-2998 colon
# [2] = tested on: NCI/ADR-RES ovarian
# [3] = tested on: A549 NSCLC
# [4] = tested on: SF-295 CNS
# [5] = tested on: RXF 393 renal
# [6] = tested on: SNB-75 CNS
# [7] = tested on: SK-MEL-5 melanoma
# [8] = tested on: MDA-MB-435
# [9] = tested on: NCI-H522 lung
# [10] = tested on: OVCAR-4 ovarian
# [11] = tested on: T-47D breast
# [12] = tested on: NCI-H226 lung
# [13] = tested on: MOLT-4 leukemia
# [14] = tested on: MDA-MB-231 breast
# [15] = tested on: CAKI-1 renal
# [16] = tested on: HS 578T breast
# [17] = tested on: SF-539 CNS
# [18] = tested on: UACC-257 melanoma
# [19] = tested on: SK-OV-3 ovarian
# [20] = tested on: HCT-116 colon
# [21] = tested on: HOP-62 NSCLC
# [22] = tested on: HT29 colon
# [23] = tested on: K-562 leukemia
# [24] = tested on: OVCAR-3 ovarian
# [25] = tested on: SW-620 colon
# [26] = tested on: SF-268 CNS
# [27] = tested on: BT-549 breast
# [28] = tested on: SN12C renal
# [29] = tested on: M14 melanoma
# [30] = tested on: CCRF-CEM leukemia
# [31] = tested on: SK-MEL-2 melanoma
# [32] = tested on: DU-145 prostate
# [33] = tested on: A498 renal
# [34] = tested on: SNB-19 CNS
# [35] = tested on: IGROV1 ovarian
# [36] = tested on: HOP-92 NSCLC
# [37] = tested on: UO-31 renal
# [38] = tested on: HL-60(TB) leukemia
# [39] = tested on: NCI-H460 lung
# [40] = tested on: COLO 205 colon
# [41] = tested on: OVCAR-5 ovarian
# [42] = tested on: MCF7 breast
# [43] = tested on: SK-MEL-28 melanoma
# [44] = tested on: NCI-H23 lung
# [45] = tested on: RPMI-8226 leukemia
# [46] = tested on: EKVX NSCLC
# [47] = tested on: TK-10 renal
# [48] = tested on: OVCAR-8 ovarian
# [49] = tested on: PC-3 prostate
# [50] = tested on: ACHN renal
# [51] = tested on: HCT-15 colon
# [52] = tested on: LOX IMVI melanoma
# [53] = tested on: 786-0 renal
# [54] = tested on: SR leukemia
# [55] = tested on: U251 CNS
# [56] = tested on: UACC-62 melanoma
# [57] = tested on: KM12 colon
smiles,measurement,setting,value
CCCCCCCCCCCCCCCCC(=O)N1CCCC1C(=O)NCC(=O)NC(C(=O)N1CCCC1C(=O)NC(CO)C(=O)NC(Cc1ccc(O)cc1)C(=O)NC(CCCCNC(=O)C1CCCN1C(=O)C(CCCCN)NC(=O)C(CCCCN)NC(=O)C(CCCCN)NC(=O)C(CCCNC(=N)N)NC(=O)C(CCCCN)NC(=O)C(N)C(C)C)C(=O)NC(CC(C)C)C(=O)NC(CCCNC(=N)N)C(=O)N1CCCC1C(=O)NCC(N)=O)c1ccccc1 (stereo not drawn) (I: Heptadecanoyl-PG[Phg]PSYKLRPG-NH2 / II: H-VKRKKKP; amide I:7-II:C; configuration not given here),GI50,[1],4.36 µM
same,TGI,[1],29.9 µM
same,GI50,[2],26.2 µM
same,TGI,[2],84 µM
same,GI50,[3],23.9 µM
same,TGI,[3],53.3 µM
same,GI50,[4],25 µM
same,TGI,[4],80.1 µM
same,GI50,[5],36.8 µM
same,TGI,[5],> 100 µM
same,GI50,[6],54.2 µM
same,TGI,[6],> 100 µM
same,GI50,[7],31.3 µM
same,TGI,[7],> 100 µM
same,GI50,[8],18.9 µM
same,TGI,[8],83.9 µM
same,GI50,[9],25.5 µM
same,TGI,[9],85.9 µM
same,GI50,[10],46.9 µM
same,TGI,[10],> 100 µM
same,GI50,[11],5.38 µM
same,TGI,[11],70.7 µM
same,GI50,[12],22.1 µM
same,TGI,[12],49.3 µM
same,GI50,[13],16.3 µM
same,TGI,[13],44.8 µM
same,GI50,[14],17.7 µM
same,TGI,[14],36.1 µM
same,GI50,[15],22.9 µM
same,TGI,[15],47.7 µM
same,GI50,[16],> 100 µM
same,TGI,[16],> 100 µM
same,GI50,[17],34.4 µM
same,TGI,[17],> 100 µM
same,GI50,[18],12.2 µM
same,TGI,[18],62.9 µM
same,GI50,[19],23.1 µM
same,TGI,[19],51.4 µM
same,GI50,[20],13 µM
same,TGI,[20],43.8 µM
same,GI50,[21],32.3 µM
same,TGI,[21],> 100 µM
same,GI50,[22],29.6 µM
same,TGI,[22],> 100 µM
same,GI50,[23],10.2 µM
same,TGI,[23],86.8 µM
same,GI50,[24],27 µM
same,TGI,[24],71.2 µM
same,GI50,[25],40.5 µM
same,TGI,[25],> 100 µM
same,GI50,[26],15 µM
same,TGI,[26],> 100 µM
same,GI50,[27],36.5 µM
same,TGI,[27],89.3 µM
same,GI50,[28],12 µM
same,TGI,[28],27.7 µM
same,GI50,[29],25.3 µM
same,TGI,[29],99.7 µM
same,GI50,[30],12 µM
same,TGI,[30],31.5 µM
same,GI50,[31],50.3 µM
same,TGI,[31],> 100 µM
same,GI50,[32],24.6 µM
same,TGI,[32],61.5 µM
same,GI50,[33],76.3 µM
same,TGI,[33],> 100 µM
same,GI50,[34],31.2 µM
same,TGI,[34],84.1 µM
same,GI50,[35],24.8 µM
same,TGI,[35],75.7 µM
same,GI50,[36],30.4 µM
same,TGI,[36],83 µM
same,GI50,[37],32.4 µM
same,TGI,[37],> 100 µM
same,GI50,[38],21.3 µM
same,TGI,[38],> 100 µM
same,GI50,[39],23.2 µM
same,TGI,[39],> 100 µM
same,GI50,[40],4.75 µM
same,TGI,[40],18.4 µM
same,GI50,[41],34.3 µM
same,TGI,[41],> 100 µM
same,GI50,[42],23.6 µM
same,TGI,[42],> 100 µM
same,GI50,[43],19.5 µM
same,TGI,[43],> 100 µM
same,GI50,[44],31.5 µM
same,TGI,[44],> 100 µM
same,GI50,[45],13.5 µM
same,TGI,[45],35.3 µM
same,GI50,[46],27.7 µM
same,TGI,[46],84.4 µM
same,GI50,[47],26.5 µM
same,TGI,[47],66.6 µM
same,GI50,[48],28.2 µM
same,TGI,[48],84.6 µM
N=C(N)c1ccc(-c2ccc(-c3cc(Cl)cc(Cl)c3)s2)nc1,GI50,[3],2.07 µM
same,TGI,[3],4.56 µM
same,GI50,[6],1.47 µM
same,TGI,[6],3.03 µM
same,GI50,[9],2.16 µM
same,TGI,[9],4.73 µM
same,GI50,[11],2.12 µM
same,TGI,[11],4.99 µM
same,GI50,[19],2.6 µM
same,TGI,[19],8.15 µM
same,GI50,[30],2.39 µM
same,TGI,[30],5.86 µM
same,GI50,[31],2.7 µM
same,TGI,[31],7.02 µM
same,GI50,[32],1.88 µM
same,TGI,[32],3.33 µM
same,GI50,[36],3.43 µM
same,TGI,[36],19.4 µM
same,GI50,[38],2.12 µM
same,TGI,[38],4.95 µM
same,GI50,[41],1.68 µM
same,TGI,[41],3.05 µM
same,GI50,[45],2.31 µM
same,TGI,[45],5.26 µM
CC(=O)O[C@@H]1CC(=O)O[C@@H]2C[C@@H](CC/C(Cl)=C/C/C=C\1C)O[C@@H]2CO,GI50,[1],> 25 µM
same,TGI,[1],> 25 µM
same,GI50,[2],> 25 µM
same,TGI,[2],> 25 µM
same,GI50,[3],> 25 µM
same,TGI,[3],> 25 µM
same,GI50,[49],> 25 µM
same,TGI,[49],> 25 µM
same,GI50,[50],> 25 µM
same,TGI,[50],> 25 µM
same,TGI,[4],> 25 µM
same,GI50,[5],> 25 µM
same,TGI,[5],> 25 µM
same,GI50,[6],> 25 µM
same,TGI,[6],> 25 µM
same,GI50,[7],> 25 µM
same,TGI,[7],> 25 µM
same,GI50,[9],> 25 µM
same,TGI,[9],> 25 µM
same,GI50,[12],> 25 µM
same,TGI,[12],> 25 µM
same,GI50,[13],> 25 µM
same,TGI,[13],> 25 µM
same,GI50,[14],> 25 µM
same,TGI,[14],> 25 µM
same,GI50,[15],> 25 µM
same,TGI,[15],> 25 µM
same,GI50,[16],> 25 µM
same,TGI,[16],> 25 µM
same,GI50,[51],> 25 µM
same,TGI,[51],> 25 µM
same,GI50,[17],> 25 µM
same,TGI,[17],> 25 µM
same,GI50,[18],> 25 µM
same,TGI,[18],> 25 µM
same,GI50,[19],> 25 µM
same,TGI,[19],> 25 µM
same,GI50,[20],> 25 µM
same,TGI,[20],> 25 µM
same,GI50,[21],> 25 µM
same,TGI,[21],> 25 µM
same,GI50,[22],> 25 µM
same,TGI,[22],> 25 µM
same,GI50,[23],> 25 µM
same,TGI,[23],> 25 µM
same,TGI,[24],> 10.6 µM
same,GI50,[25],> 25 µM
same,TGI,[25],> 25 µM
same,GI50,[52],> 25 µM
same,TGI,[52],> 25 µM
same,GI50,[26],> 25 µM
same,TGI,[26],> 25 µM
same,GI50,[53],> 25 µM
same,TGI,[53],> 25 µM
same,GI50,[27],24.5 µM
same,TGI,[27],> 25 µM
same,GI50,[28],> 25 µM
same,TGI,[28],> 25 µM
same,GI50,[29],> 25 µM
same,TGI,[29],> 25 µM
same,GI50,[31],> 25 µM
same,TGI,[31],> 25 µM
same,GI50,[32],> 22.1 µM
same,TGI,[32],> 25 µM
same,GI50,[33],20.1 µM
same,TGI,[33],> 25 µM
same,GI50,[34],> 25 µM
same,TGI,[34],> 25 µM
same,GI50,[54],> 25 µM
same,TGI,[54],> 25 µM
same,GI50,[35],> 25 µM
same,TGI,[35],> 25 µM
same,GI50,[36],> 25 µM
same,TGI,[36],> 25 µM
same,GI50,[37],> 25 µM
same,TGI,[37],> 25 µM
same,GI50,[38],> 25 µM
same,TGI,[38],> 25 µM
same,GI50,[39],> 25 µM
same,TGI,[39],> 25 µM
same,GI50,[55],> 25 µM
same,TGI,[55],> 25 µM
same,GI50,[40],> 25 µM
same,TGI,[40],> 25 µM
same,GI50,[41],> 25 µM
same,TGI,[41],> 25 µM
same,GI50,[42],> 25 µM
same,TGI,[42],> 25 µM
same,GI50,[43],> 25 µM
same,TGI,[43],> 25 µM
same,GI50,[44],> 25 µM
same,TGI,[44],> 25 µM
same,GI50,[56],> 25 µM
same,TGI,[56],> 25 µM
same,GI50,[45],> 25 µM
same,TGI,[45],> 25 µM
same,GI50,[46],> 15 µM
same,TGI,[46],> 25 µM
same,GI50,[47],> 25 µM
same,TGI,[47],> 25 µM
same,TGI,[57],> 6.4 µM
same,GI50,[48],> 25 µM
same,TGI,[48],> 25 µM
